Key:
HLA-A2.1 = target: T1, HLA-A2.1 (Homo sapiens, UniProt P04439, D140Y/D185E/D98H/E176V/E277Q/G131W/G231S/I119V/I121R/I166T/I218V/L300P/L318F/N151K/N90K/P208A/P217A/Q86G/Q94H/R138H/R169H/T345S); assay: class I MHC molecule stabilization assay on T2 cells; assay type: cell-based; conditions: T2 cells incubated 18 hours with peptide, vs medium alone
T1 construct: T2 without exogenous peptide has low expression of HLA-A2 (30%-50%); endogenous in cells; host or cells: T2 (human T-B cell hybrid)

rat sera = assay: ELISA for peptide epitope analysis of sera of immunized rats; assay type: in vivo; conditions: sera from rats immunized with ECD peptides
Description: One group of rats was immunized with a mixture of extracellular domain (ECD) peptides and one group with a mixture of intracellular domain (ICD) peptides. The final group received adjuvant alone. Peptides were administered at a final concentration of 100 μg each in a total volume of 200 μl. The animals underwent 3 immunizations each 14-16 days apart with either CFA or IFA as adjuvant (Sigma ImmunoChemicals, St. Louis, Mo.). 16 days after the third immunization sera was obtained for assessment of immune response.
96 well Immulon 4 plates (Dynatech Laboratories) were incubated overnight at 4° C. with peptides at a concentration of 10 μg/well diluted in PBS alternating with rows of PBS/1%BSA. After incubation, all wells were blocked with PBS/1%BSA, 100 μl/well for 4 hours at room temperature. The plate was washed with PBS/0.5% Tween. After washing, the plate was incubated with rat sera at the following dilutions: 1:50 and 1:100. The sera was diluted in PBS/1%BSA/1% FBS/25 μg/ml mouse IgG/0.01% NaN3 and then serially into PBS/1%BSA. […] Color reaction was read at an optical density of 640 nm until the reading on the most reactive well reached 0.3 OD. The reaction was stopped with 1N HCl and the optical density was read at 450 nm. The OD of each serum dilution was calculated as the OD of the peptide coated wells minus the OD of the PBS/1%BSA coated wells. […]

[1] = system: peripheral blood mononuclear cells (PBMC); assay: standard proliferation assay of PBMC (3H-thymidine), CD4+ T cell response; assay type: cell-based, human
PBL = assay: low frequency event screening assay for CD4+ T cell precursors in PBL of normal individuals; assay type: cell-based, human
[2] = breast cancer patient A, HER-2/neu status Negative, tetanus toxoid 5 μg/ml, p185 5 μg/ml, peptides 50 μg/ml, 4 days
[3] = breast cancer patient B, HER-2/neu status Positive, tetanus toxoid 5 μg/ml, p185 5 μg/ml, peptides 50 μg/ml, 4 days
[4] = breast cancer patient C, HER-2/neu status Positive, tetanus toxoid 5 μg/ml, p185 5 μg/ml, peptides 50 μg/ml, 4 days
[5] = breast cancer patient D, HER-2/neu status Positive, tetanus toxoid 5 μg/ml, p185 5 μg/ml, peptides 50 μg/ml, 4 days

Compound	% Increase of class I stabilization on T2 (HLA-A2.1)	antibody responses to individual peptides (rat sera)	Stimulation Index (S.I.) [1, 2]	Stimulation Index (S.I.) [1, 3]	Stimulation Index (S.I.) [1, 4]	Stimulation Index (S.I.) [1, 5]	Stimulation Index (S.I.) ([1]; normal individual 1)	Stimulation Index (S.I.) ([1]; normal individual 2)	Stimulation Index (S.I.) ([1]; normal individual 3)	Stimulation Index (S.I.) ([1]; normal individual 4)	Stimulation Index (S.I.) ([1]; normal individual 5)	CD4+ T cell response in low frequency screening (PBL; one normal individual (FIG. 2))	individuals with a proliferative response (PBL; seven normal subjects (4 males, 3 females))
CC(C)C[C@H](NC(=O)[C@@H](N)Cc1c[nH]cn1)C(=O)N[C@@H](Cc1ccc(O)cc1)C(=O)N[C@@H](CCC(N)=O)C(=O)NCC(=O)N[C@@H](CS)C(=O)N[C@@H](CCC(N)=O)C(=O)N[C@H](C(=O)N[C@H](C(=O)O)C(C)C)C(C)C [p48-56]	20%												
CC(C)C[C@H](NC(=O)[C@H](CCC(N)=O)NC(=O)[C@@H](NC(=O)[C@@H](NC(=O)[C@H](CO)NC(=O)[C@@H](NC(=O)[C@H](CC(C)C)NC(=O)[C@@H](N)CS)[C@@H](C)O)[C@@H](C)O)C(C)C)C(=O)N[C@H](C(=O)O)C(C)C [p789-797]	20%												
TQRCEKCSKPCARVCYGL [p328-345]		substantial responses											
Tetanus Toxoid [reference compound]			52	36	7	10	6	7	7	10	11		
p185: protein product of the HER-2/neu oncogene, partially purified whole protein from SKBR3 cell membranes			13	< 2	4	4	2	< 2	< 2	2	2	Positive responses	57%

From patent US5846538A, “Immune reactivity to HER-2/neu protein for diagnosis and treatment of malignancies in which the her-2/neu oncogene is associated” (University of Washington, priority 1995, dated 1998)
